Our source for the CC50 and inhibition values is US9050344B2, “Therapeutic compounds” (Gilead Sciences, Inc., priority 2013, dated 2015).

Molecules are shown by their SMILES. Where only a bound is given, the exact number is not on record here.

The nature of data set [1]: Test B: Cytotoxicity Assay (protocol of Test A, uninfected cells). The data set is classed as cell-based. The settings on record: human, uninfected MT-4 cells, CellTiter-Glo. The protocol:
Test B: Cytotoxicity Assay Compound cytotoxicity and the corresponding CC50 values was determined using the same protocol as described in the antiviral assay (Test A) except that uninfected cells were used.
On the technique in general: ATP-based viability assays read luminescence as a measure of living cells.

Data set [2] relates to HIV-IIIb. Description: Test A: Antiviral Assay in MT4 Cells. The data set is classed as cell-based, HIV-1. The conditions noted are these: Human immunodeficiency virus 1, IIIB, MT4, 120 h, read-out: % inhibition at 3 μM. The protocol: Test A: Antiviral Assay in MT4 Cells
For the antiviral assay, 40 μL of 1× test concentration of 3-fold serially diluted compound in culture medium with 10% FBS was added to each well of a 384-well plate (10 concentrations) in quadruplicate. MT-4 cells were next mixed with HIV-IIIb at an m.o.i of 0.003 for 1 hour, after which time 35 μL of virus/cell mixture (2000 cells) was immediately added to each well containing 40 μL of diluted compound. The plates were then incubated at 37° C. for 5 days. After 5 days of incubation, 25 μl of 2× concentrated CellTiter-Glo™ Reagent (catalog #G7571, Promega Biosciences, Inc., Madison, Wis.) was added to each well containing MT-4 cells. Cell lysis was carried out by incubating at room temperature for 10 min and then chemiluminescence was read.

As a reminder, the CC50 is the concentration giving 50% cytotoxicity. As usually defined, the inhibition is the relative decrease from the control value, in per cent. In data set [1], `Cn1nc(NS(C)(=O)=O)c2cccc(-c3ccc(N4CC(N)CC4=O)nc3[C@H](Cc3cc(F)cc(F)c3)NC(=O)Cn3nc(C(F)(F)F)c4c3C(F)(F)[C@@H]3C[C@H]43)c21` (stereo partly drawn) [Compound 43B, N-((1S)-1-(6-(4-amino-2-oxopyrrolidin-1-yl)-3-(1-methyl-3-(methylsulfonamido)-1H-indazol-7-yl)pyridin-2-yl)-2-(3,5-difluorophenyl)ethyl)-2-((3bS,4aR)-5,5-difluoro-3-(trifluoromethyl)-3b,4,4a,5-tetrahydro-1H-cyclopropa[3,4]cyclopenta[1,2-c]pyrazol-1-yl)acetamide] returned a 50% cytotoxic concentration (CC50) at 5 days of 16.9 µM. Further, in data set [2], the inhibition at 3 µM was determined as 83%.

In turn, `CC(=O)Nc1cc(-c2ccc(Cl)c3c(NS(C)(=O)=O)nn(C)c23)c([C@H](Cc2cc(F)cc(F)c2)NC(=O)Cn2nc(C(F)F)c3c2C(F)(F)[C@@H]2C[C@H]32)nc1C` [Compound 48, N—((S)-1-(5-acetamido-3-(4-chloro-1-methyl-3-(methylsulfonamido)-1H-indazol-7-yl)-6-methylpyridin-2-yl)-2-(3,5-difluorophenyl)ethyl)-2-((3bS,4aR)-3-(difluoromethyl)-5,5-difluoro-3b,4,4a,5-tetrahydro-1H-cyclopropa[3,4]cyclopenta[1,2-c]pyrazol-1-yl)acetamide] returned a 50% cytotoxic concentration (CC50) at 5 days in data set [1] of 20.7 µM. The inhibition at 3 µM in data set [2] came to 93%.

For `Cc1c(-c2cc(N)cnc2[C@H](Cc2cc(F)cc(F)c2)NC(=O)Cn2nc(C(F)(F)F)c3c2C(F)(F)[C@@H]2C[C@H]32)ccc2n[nH]c(=O)n12` [Compound 34, N—((S)-1-(5-amino-3-(5-methyl-3-oxo-2,3-dihydro-[1,2,4]triazolo[4,3-a]pyridin-6-yl)pyridin-2-yl)-2-(3,5-difluorophenyl)ethyl)-2-((3bS,4aR)-5,5-difluoro-3-(trifluoromethyl)-3b,4,4a,5-tetrahydro-1H-cyclopropa[3,4]cyclopenta[1,2-c]pyrazol-1-yl)acetamide], it took 22.4 µM to reach half-maximal cytotoxicity in data set [1] (CC50 at 5 days). Also, the inhibition at 3 µM in data set [2] is 89%.

As to `Cn1nc(NS(C)(=O)=O)c2cccc(-c3nc(N)cnc3C(Cc3cc(F)cc(F)c3)NC(=O)Cn3nc(C(F)F)c4c3C(F)(F)[C@@H]3C[C@H]43)c21` (stereo partly drawn) [Compound 61, N-(1-(5-amino-3-(1-methyl-3-(methylsulfonamido)-1H-indazol-7-yl)pyrazin-2-yl)-2-(3,5-difluorophenyl)ethyl)-2-((3bS,4aR)-3-(difluoromethyl)-5,5-difluoro-3b,4,4a,5-tetrahydro-1H-cyclopropa[3,4]cyclopenta[1,2-c]pyrazol-1-yl)acetamide], in data set [1], the CC50 at 5 days was over 53.2 µM. For the same compound, in data set [2], the inhibition at 3 µM is 75%.

`CN1CCN(c2ccc(-c3ccc(Cl)c4c(NS(C)(=O)=O)nn(C)c34)c([C@H](Cc3cc(F)cc(F)c3)NC(=O)Cn3nc(C(F)(F)F)c4c3C(F)(F)[C@@H]3C[C@H]43)n2)CC1` [Compound 60C, N—((S)-1-(3-(4-chloro-1-methyl-3-(methylsulfonamido)-1H-indazol-7-yl)-6-(4-methylpiperazin-1-yl)pyridin-2-yl)-2-(3,5-difluorophenyl)ethyl)-2-((3bS,4aR)-5,5-difluoro-3-(trifluoromethyl)-3b,4,4a,5-tetrahydro-1H-cyclopropa[3,4]cyclopenta[1,2-c]pyrazol-1-yl)acetamide] registered a CC50 at 5 days in data set [1] of 9.11 µM. Also, in data set [2], the inhibition at 3 µM amounted to 90%.

`Cc1c(-c2cc(NC(=O)C(F)(F)F)cnc2[C@H](Cc2cc(F)cc(F)c2)NC(=O)Cn2nc(C(F)(F)F)c3c2C(F)(F)[C@@H]2C[C@H]32)ccc2n[nH]c(=O)n12` [Compound 40, N-(6-((S)-1-(2-((3bS,4aR)-5,5-difluoro-3-(trifluoromethyl)-3b,4,4a,5-tetrahydro-1H-cyclopropa[3,4]cyclopenta[1,2-c]pyrazol-1-yl)acetamido)-2-(3,5-difluorophenyl)ethyl)-5-(5-methyl-3-oxo-2,3-dihydro-[1,2,4]triazolo[4,3-a]pyridin-6-yl)pyridin-3-yl)-2,2,2-trifluoroacetamide] yielded a CC50 at 5 days in data set [1] of 24.1 µM. For the same compound, the inhibition at 3 µM in data set [2] worked out at 96%.

For `NC(=O)c1cc(-c2cc(N3C(=O)c4ccccc4C3=O)cnc2[C@H](Cc2cc(F)cc(F)c2)NC(=O)Cn2nc(C(F)(F)F)c3c2C(F)(F)[C@@H]2C[C@H]32)ccc1F` [Compound 30K, 5-(2-((S)-1-(2-((3bS,4aR)-5,5-difluoro-3-(trifluoromethyl)-3b,4,4a,5-tetrahydro-1H-cyclopropa[3,4]cyclopenta[1,2-c]pyrazol-1-yl)acetamido)-2-(3,5-difluorophenyl)ethyl)-5-(1,3-dioxoisoindolin-2-yl)pyridin-3-yl)-2-fluorobenzamide], the CC50 at 5 days in data set [1] is over 53.2 µM. For the same compound, in data set [2], the inhibition at 3 µM was 48%.

In turn, `CN(CCO)c1ccc(-c2ccc(Cl)c3c(NS(C)(=O)=O)nn(C)c23)c([C@H](Cc2cc(F)cc(F)c2)NC(=O)Cn2nc(C(F)(F)F)c3c2C(F)(F)[C@@H]2C[C@H]32)n1` [Compound 58, N—((S)-1-(3-(4-chloro-1-methyl-3-(methylsulfonamido)-1H-indazol-7-yl)-6-((2-hydroxyethyl)(methyl)amino)pyridin-2-yl)-2-(3,5-difluorophenyl)ethyl)-2-((3bS,4aR)-5,5-difluoro-3-(trifluoromethyl)-3b,4,4a,5-tetrahydro-1H-cyclopropa[3,4]cyclopenta[1,2-c]pyrazol-1-yl)acetamide] had a CC50 at 5 days in data set [1] of 12.8 µM. Besides, in data set [2], the inhibition at 3 µM was determined as 86%.

In data set [1], `CC(=O)Nc1cnc([C@H](Cc2cc(F)cc(F)c2)NC(=O)Cn2nc(C(F)(F)F)c3c2C(F)(F)[C@@H]2C[C@H]32)c(-c2cccc3c(NS(C)(=O)=O)nn(C)c23)c1` [Compound 39, N—((S)-1-(5-acetamido-3-(1-methyl-3-(methylsulfonamido)-1H-indazol-7-yl)pyridin-2-yl)-2-(3,5-difluorophenyl)ethyl)-2-((3bS,4aR)-5,5-difluoro-3-(trifluoromethyl)-3b,4,4a,5-tetrahydro-1H-cyclopropa[3,4]cyclopenta[1,2-c]pyrazol-1-yl)acetamide] had a CC50 at 5 days of 29.6 µM. Besides, in data set [2], the inhibition at 3 µM turned out to be 92%.

Take `Cc1nc([C@H](Cc2cc(F)cc(F)c2)NC(=O)Cn2nc(C(F)F)c3c2C(F)(F)[C@@H]2C[C@H]32)c(-c2ccc(Cl)c3c(NS(C)(=O)=O)nn(C)c23)cc1N` [Compound 47C, N—((S)-1-(5-amino-3-(4-chloro-1-methyl-3-(methylsulfonamido)-1H-indazol-7-yl)-6-methylpyridin-2-yl)-2-(3,5-difluorophenyl)ethyl)-2-((3bS,4aR)-3-(difluoromethyl)-5,5-difluoro-3b,4,4a,5-tetrahydro-1H-cyclopropa[3,4]cyclopenta[1,2-c]pyrazol-1-yl)acetamide]: the CC50 at 5 days in data set [1] was 18.1 µM. Moreover, the inhibition at 3 µM in data set [2] amounted to 107%.

The compound `NC(=O)c1cc(-c2cc(N)cnc2[C@H](Cc2cc(F)cc(F)c2)NC(=O)Cn2nc(C(F)F)c3c2C(F)(F)CCC3(F)F)ccc1F` [Compound 33, (S)-5-(5-amino-2-(1-(2-(3-(difluoromethyl)-4,4,7,7-tetrafluoro-4,5,6,7-tetrahydro-1H-indazol-1-yl)acetamido)-2-(3,5-difluorophenyl)ethyl)pyridin-3-yl)-2-fluorobenzamide] gave a CC50 at 5 days in data set [1] of 13.3 µM. The inhibition at 3 µM in data set [2] stood at 85%.

In the case of `NC(=O)c1cc(-c2cc(N3C(=O)c4ccccc4C3=O)cnc2[C@H](Cc2cc(F)cc(F)c2)NC(=O)Cn2nc(C(F)F)c3c2C(F)(F)CCC3(F)F)ccc1F` [Compound 32, (S)-5-(2-(1-(2-(3-(difluoromethyl)-4,4,7,7-tetrafluoro-4,5,6,7-tetrahydro-1H-indazol-1-yl)acetamido)-2-(3,5-difluorophenyl)ethyl)-5-(1,3-dioxoisoindolin-2-yl)pyridin-3-yl)-2-fluorobenzamide], the CC50 at 5 days in data set [1] was over 53.2 µM. Moreover, the inhibition at 3 µM in data set [2] worked out at 37%.

In turn, `Cc1nc([C@H](Cc2cc(F)cc(F)c2)NC(=O)Cn2nc(C(F)F)c3c2C(F)(F)[C@@H]2C[C@H]32)c(-c2cccc3c(NS(C)(=O)=O)nn(C)c23)cc1N` [Compound 44, N—((S)-1-(5-amino-6-methyl-3-(1-methyl-3-(methylsulfonamido)-1H-indazol-7-yl)pyridin-2-yl)-2-(3,5-difluorophenyl)ethyl)-2-((3bS,4aR)-3-(difluoromethyl)-5,5-difluoro-3b,4,4a,5-tetrahydro-1H-cyclopropa[3,4]cyclopenta[1,2-c]pyrazol-1-yl)acetamide] gave a CC50 at 5 days in data set [1] of 32 µM. Also, the inhibition at 3 µM in data set [2] stood at 107%.

Compound `CN(C)c1cnc([C@H](Cc2cc(F)cc(F)c2)NC(=O)Cn2nc(C(F)F)c3c2C(F)(F)[C@@H]2C[C@H]32)c(-c2ccc(Cl)c3c(NS(C)(=O)=O)nn(C)c23)c1` [Compound 50, N—((S)-1-(3-(4-chloro-1-methyl-3-(methylsulfonamido)-1H-indazol-7-yl)-5-(dimethylamino)pyridin-2-yl)-2-(3,5-difluorophenyl)ethyl)-2-((3bS,4aR)-3-(difluoromethyl)-5,5-difluoro-3b,4,4a,5-tetrahydro-1H-cyclopropa[3,4]cyclopenta[1,2-c]pyrazol-1-yl)acetamide] gave a CC50 at 5 days in data set [1] of 34.2 µM. Moreover, the inhibition at 3 µM in data set [2] stood at 86%.
